Where a name gives a salt, the structure may show the parent alone. Read-outs that look alike come from different tables or passages of the source.

One test addresses T1, GABA uptake carrier (Rattus norvegicus, UniProt P31647).
T1 construct: A crude membrane preparation was prepared from selected brain areas; from tissue
T1 sequence (P31647 1-627): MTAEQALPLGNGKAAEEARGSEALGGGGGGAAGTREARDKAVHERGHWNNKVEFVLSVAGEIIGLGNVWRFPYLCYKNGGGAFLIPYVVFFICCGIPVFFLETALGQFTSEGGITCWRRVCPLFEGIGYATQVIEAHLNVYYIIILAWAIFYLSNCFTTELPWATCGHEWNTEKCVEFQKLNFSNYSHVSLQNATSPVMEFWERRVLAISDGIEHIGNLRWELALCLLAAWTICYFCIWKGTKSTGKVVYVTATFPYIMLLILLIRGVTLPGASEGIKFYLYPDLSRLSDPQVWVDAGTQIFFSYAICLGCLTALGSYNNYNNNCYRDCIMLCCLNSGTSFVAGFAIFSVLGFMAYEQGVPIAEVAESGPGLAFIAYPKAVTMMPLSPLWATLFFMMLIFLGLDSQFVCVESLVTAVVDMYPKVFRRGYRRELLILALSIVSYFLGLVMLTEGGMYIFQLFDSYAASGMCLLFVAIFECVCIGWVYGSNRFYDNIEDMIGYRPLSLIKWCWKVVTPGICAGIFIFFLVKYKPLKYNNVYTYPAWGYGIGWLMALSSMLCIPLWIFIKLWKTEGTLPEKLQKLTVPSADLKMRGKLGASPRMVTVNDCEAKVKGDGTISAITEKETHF
The test is described as follows: 3H-GABA uptake in crude membrane preparation from selected brain areas (in presence of NNC 05-0711). Format: biochemical. As for the experimental part: ^3 H-GABA uptake was measured by a modification of the method of Fjalland et al., (1978). A crude membrane preparation was prepared from selected brain areas by homogenization in 20 ml of ice-cold 0.32M sucrose with a hand driven teflon/glass Potter-Elvehjem homogenizer. homogenate was centrifuged at 4° C. for 10 min. at 1000×g, and the pellet was discarded. The supernatant was recentrifuged at 4° C. for 20 min. at 20.000×g. The pellet was then homogenized in 50 volumes 0.32M sucrose. To 300 μl uptake-buffer ([…], 15.3 mM KCl, 6.67 mM MgSO4, 3.83 mM CaCl2, 16.67 mM glucose, 66.67 mM Tris, pH 7.5 at 30° C.) was added 1-(2-(((diphenylmethylene)amino)oxy)ethyl)-1,2,5,6-tetrahydro-3-pyridinecarboxylic acid (NNC 05-0711) (1 mM final concentration), 100 μl test substance and 50 μl tissue suspension. The sample were mixed and incubated at 30° C. for 8 min. Then ^3 H-GABA (0.9 nM final concentration) and unlabelled GABA (25 nM final concentration) was added, and the incubation was continued for an additional 8 min. The reaction was terminated by rapid filtration through Whatman GF/F glass fiber filters under vacuum. The filters were then washed twice in 10 ml of ice-cold isotonic saline, and the tritium trapped on the filters was quantified by conventional scintillation spectroscopy. Non-GABA uptake carrier mediated uptake of ^3 H-GABA was determined in the presence of […].

Test [1] relates to GABA uptake. Conditions: cited from earlier work.
Another test concerns GAT-1. Conditions: cloned GAT-1; cited from earlier work.
Test [2] relates to GABA uptake. Conditions: into presynaptic nerve terminals and glial cells; cited from earlier work.
[3] abbreviates: in vitro, crude brain membrane preparation, 1 mM NNC 05-0711, 30° C., 8 min, 0.9 nM 3H-GABA, 25 nM unlabelled GABA, read-out: IC50 (nM) in vitro, Non-GABA uptake carrier mediated uptake of 3H-GABA.

Consider `CCc1noc(-c2cc3c4ccccc4n(CCCN4CCC(O)(c5ccccc5)CC4)c3cn2)n1` [Compound 4, 1-(3-(3-(3-Ethyl-1,2,4-oxadiazol-5-yl)-9H-β-carbolin-9-yl)-1-propyl)-4-phenylpiperidin-4-ol], for which the IC50 on GABA uptake carrier (setting [3]) was found to be 932 nM. `OC1(c2ccccc2)CCN(CCCn2c3ccccc3c3cc(-c4nc(C5CC5)no4)ncc32)CC1` [Compound 7, 1-(3-(3-(3-Cyclopropyl-1,2,4-oxadiazol-5-yl)-9H-β-carbolin-9-yl)-1-propyl)-4-phenylpiperidin-4-ol hydrochloride]: on GABA uptake carrier, the IC50 was found to be 1090 nM. As for `OC1(c2ccccc2)CCN(CCCn2c3ccccc3c3cc(-c4nc(-c5ccccc5)no4)ncc32)CC1` [Compound 10, 1-(3-(3-(3-Phenyl-1,2,4-oxadiazol-5-yl)-9H-β-carbolin-9-yl)-1-propyl)-4-phenylpiperidin-4-ol hydrochloride], the IC50 at GABA uptake carrier was 1440 nM. Still for that read-out and setting: as for `CCOC(=O)c1cc2c(cn1)[nH]c1ccc([N+](=O)[O-])cc12` [Compound 15, 6-Nitro-9H-β-carboline-3-carboxylic acid ethyl ester], the figure is 6380 nM. As to `C=CCN(CC=C)c1ccc2c(c1)c1cc(-c3nc(CC)no3)ncc1n2CCCN1CCC(O)(c2ccccc2)CC1` [Compound 20, 1-(3-(3-(3-Ethyl-1,2,4-oxadiazol-5-yl)-6-dipropenylamino-9H-β-carbolin-9-yl)-1-propyl-4-phenylpiperidin-4-ol hydrochloride], the IC50 at GABA uptake carrier (setting [3]) turned out to be 5380 nM.

Consider `CCc1noc(-c2cc3c4cc(N(C)C)ccc4n(CCCN4CCC(O)(c5ccccc5)CC4)c3cn2)n1` [Compound 24], for which, on GABA uptake carrier (setting [3]), the IC50 is 4690 nM. Still for that read-out and setting: to `Cc1noc(-c2cc3c4ccccc4n(CCCN4CCC(O)(c5ccccc5)CC4)c3cn2)n1` [Compound 26, 1-(3-(3-Methyl-1,2,4-oxadiazol-5-yl)-β-carbolin-9-yl)-1-propyl)-4-phenylpiperidin-4-ol hydrochloride] belongs 1640 nM. Still for that read-out and setting: as for `Cc1nc(-c2cc3c4ccccc4n(CCCN4CCC(O)(c5ccccc5)CC4)c3cn2)no1` [Compound 28, 1-(3-(5-Methyl-1,2,4-oxadiazol-3-yl)-β-carbolin-9-yl)-1-propyl)-4-phenylpiperidin-4-ol hydrochloride], the figure is 1240 nM.

For `O=C(O)C1CCCN(CCC=C(c2ccccc2)c2ccccc2)C1` (centres unmarked) [SK&F 89976A, N-(4,4-diphenyl-3-buten-1-yl)nipecotic acid], in the test with GABA uptake [1], the “inhibition of GABA uptake, oral activity” value is on record as “orally active inhibitors of GABA uptake”. For the molecule `O=C(O)C1=CCCN(CCC=C(c2ccccc2)c2ccccc2)C1` [SK&F 100330A, N-(4,4-diphenyl-3-buten-1-yl)guvacine], the “inhibition of GABA uptake, oral activity” value with GABA uptake [1] is “orally active inhibitors of GABA uptake”. For `O=C(O)CC1CCN(CCC=C(c2ccccc2)c2ccccc2)C1` (stereo not drawn) [SK&F 100561, N-(4,4-diphenyl-3-buten-1-yl)-homo-β-proline], in the test with GABA uptake [1], the “inhibition of GABA uptake, oral activity” value was “orally active inhibitors of GABA uptake”. With `O=C(O)C1CCCN(CCC=C(c2ccccc2)c2cccs2)C1` (centres unmarked) [SK&F 100604J, N-(4-phenyl-4-(2-thienyl)-3-buten-1-yl)nipecotic acid], the “inhibition of GABA uptake, oral activity” value in the test with GABA uptake [1] is recorded as “orally active inhibitors of GABA uptake”. As for `O=C(O)C1CCCNC1` (centres unmarked) [nipecotic acid, 3-piperidinecarboxylic acid], the “sensitivity of GAT-1” value in the test with GAT-1 is recorded as “high sensitivity”. Moreover, the “inhibition of GABA uptake from the synaptic cleft” value in the test on GABA uptake [2] is recorded as “potent inhibitor of GABA uptake”.

Values taken from patent US5834482A, “Heterocyclic chemistry” (Novo Nordisk A/S, priority 1995, dated 1998).
